According to US11840528B2 (Hoffmann-La Roche Inc., priority 2018, dated 2023):

Assays:
h-GABA-A α5β3γ2 [1] = biological target: T1, h-GABA-A α5β3γ2 (Homo sapiens, UniProt P18507+P31644); assay: [3H]flumazenil competition binding assay, membranes of HEK293 cells expressing GABAA receptors; conditions: displacement of [3H]-Flumazenil 0.5 nM, HEK293 cells expressing human receptors, mean of two determinations; Table 1
Procedure, shortened: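 Receptor source: human α5β3γ2 transiently transfected into HEK293 cells, membranes in pH 7.5 Krebs-tris. Filtration through GF/C, then scintillation counting.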

h-GABA-A α5β3γ2 [2] = biological target: T1, h-GABA-A α5β3γ2; assay: Two-electrode voltage clamp electrophysiology in Xenopus laevis oocytes expressing GABAA receptors, modulation of GABA EC20 current; type: cell-based; design: host or cells: Xenopus laevis oocytes micro-injected with RNA transcripts of the subunits; conditions: Table 1; for Efficacy (GABA) %: % modulation of GABA EC20 = 100*(Fold increase-1); for Fold increase h-GABA-A α5β3γ2 oocyte: test compound at approx. 30 fold its Ki, GABA at EC20
Procedure, shortened: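 Modulation is reported as % of the GABA EC20 current, calculated as 100*(Fold increase−1) from the peak ratio between a second GABA response carrying compound (applied at roughly 30-fold Ki) and a preceding control response. Oocytes expressing human α5β3γ2 were clamped at −80 mV at room temperature, 3–5 days after injection.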

Row | SMILES | Ki (h-GABA-A α5β3γ2 [1]) | Efficacy (GABA) % (h-GABA-A α5β3γ2 [2]) | Fold increase h-GABA-A α5β3γ2 oocyte (h-GABA-A α5β3γ2 [2])
1 | Cc1onc(-c2ccc(C(F)(F)F)nc2)c1Cn1ncc(N2C[C@@H](C)O[C@@H](C)C2)cc1=O [Example 39, 5-(cis-2,6-dimethylmorpholin-4-yl)-2-[[5-methyl-3-[6-(trifluoromethyl)-3-pyridyl]isoxazol-4-yl]methyl]pyridazin-3-one] | 3.2 nM | 198% | 2.98
2 | Cc1onc(-c2ccc(C(F)(F)F)nc2)c1Cn1ncc(N2CCN(C(=O)C3(C)CC3)CC2)cc1=O [Example 40, 5-[4-(1-methylcyclopropanecarbonyl)piperazin-1-yl]-2-[[5-methyl-3-[6-(trifluoromethyl)-3-pyridyl]isoxazol-4-yl]methyl]pyridazin-3-one] | 43.3 nM | 250% | 3.5
3 | Cc1ccc(-c2noc(C)c2Cn2ncc(N3CCN4C(=O)CCC4C3)cc2=O)cn1 (stereo not drawn) [Example 43, 2-(1-((5-methyl-3-(6-methylpyridin-3-yl)isoxazol-4-yl)methyl)-6-oxo-1,6-dihydropyridazin-4-yl)hexahydropyrrolo[1,2-a]pyrazin-6(2H)-one] | 10 nM | 174% | 2.74
4 | Cc1ccc(-c2noc(C)c2Cn2ncc(N3CCN4C(=O)OCC4C3)cc2=O)cn1 (stereo not drawn) [Example 44, 7-(1-((5-methyl-3-(6-methylpyridin-3-yl)isoxazol-4-yl)methyl)-6-oxo-1,6-dihydropyridazin-4-yl)tetrahydro-1H-oxazolo[3,4-a]pyrazin-3(5H)-one] | 9.5 nM | 181% | 2.81
5 | Cc1ccc(-c2noc(C)c2Cn2ncc(N(C)C)cc2=O)cn1 [Example 45, 5-(dimethylamino)-2-((5-methyl-3-(6-methylpyridin-3-yl)isoxazol-4-yl)methyl)pyridazin-3(2H)-one] | 6.6 nM | 103% | 2.03
6 | Cc1ccc(-c2noc(C)c2Cn2ncc(N3CCC4(CC3)COC4)cc2=O)cn1 [Example 46, 2-[[5-methyl-3-(6-methyl-3-pyridyl)isoxazol-4-yl]methyl]-5-(2-oxa-7-azaspiro[3.5]nonan-7-yl)pyridazin-3-one] | 15.2 nM | 107% | 2.07
7 | Cc1ccc(-c2noc(C)c2Cn2ncc(N3C[C@H]4COC[C@H]4C3)cc2=O)cn1 [Example 49, 5-[(3aR,6aS)-1,3,3a,4,6,6a-hexahydrofuro[3,4-c]pyrrol-5-yl]-2-[[5-methyl-3-(6-methyl-3-pyridyl)isoxazol-4-yl]methyl]pyridazin-3-one] | 13 nM | 167% | 2.67
8 | Cc1ccc(-c2noc(C)c2Cn2ncc(N3CCN[C@H](C)C3)cc2=O)cn1 [Example 50, 2-[[5-methyl-3-(6-methyl-3-pyridyl)isoxazol-4-yl]methyl]-5-[(3R)-3-methylpiperazin-1-yl]pyridazin-3-one] | 2.8 nM | 187% | 2.87
9 | Cc1ccc(-c2noc(C)c2Cn2ncc(N3CCN[C@@H](C)C3)cc2=O)cn1 [Example 51, 2-[[5-methyl-3-(6-methyl-3-pyridyl)isoxazol-4-yl]methyl]-5-[(3S)-3-methylpiperazin-1-yl]pyridazin-3-one] | 3.3 nM | 182% | 2.82
10 | Cc1onc(-c2ncc(Cl)cc2F)c1Cn1ncc(N2C[C@@H](C)O[C@@H](C)C2)cc1=O [Example 52, 2-[[3-(5-chloro-3-fluoro-2-pyridyl)-5-methyl-isoxazol-4-yl]methyl]-5-(cis-2,6-dimethylmorpholin-4-yl)pyridazin-3-one] | 0.7 nM | 135% | 2.35
11 | Cc1onc(-c2ncc(Cl)cc2F)c1Cn1ncc(N2CCN(C(=O)C3(C)CC3)CC2)cc1=O [Example 53, 2-[[3-(5-chloro-3-fluoro-2-pyridyl)-5-methyl-isoxazol-4-yl]methyl]-5-[4-(1-methylcyclopropanecarbonyl)piperazin-1-yl]pyridazin-3-one] | 9.8 nM | 152% | 2.52
12 | Cc1ccc(-c2noc(C)c2Cn2ncc(N3CCC(n4c(C)nnc4C)CC3)cc2=O)cn1 [Example 54, 5-[4-(3,5-dimethyl-1,2,4-triazol-4-yl)-1-piperidyl]-2-[[5-methyl-3-(6-methyl-3-pyridyl)isoxazol-4-yl]methyl]pyridazin-3-one] | 10.8 nM | 175% | 2.75
13 | Cc1onc(-c2ccc(F)cc2)c1Cn1ncc(N2CCC(n3c(C)nnc3C)CC2)cc1=O [Example 55, 5-(4-(3,5-Dimethyl-4H-1,2,4-triazol-4-yl)piperidin-1-yl)-2-((3-(4-fluorophenyl)-5-methylisoxazol-4-yl)methyl)pyridazin-3(2H)-one] | 43.4 nM | 85% | 1.85
14 | Cc1ccc(-c2noc(C)c2Cn2ncc(N3CC[C@@H](C(=O)NC4CC4)C3)cc2=O)cn1 [Example 56, (3R)—N-cyclopropyl-1-[1-[[5-methyl-3-(6-methyl-3-pyridyl)isoxazol-4-yl]methyl]-6-oxo-pyridazin-4-yl]pyrrolidine-3-carboxamide] | 33.4 nM | 247% | 3.47
15 | Cc1ccc(-c2noc(C)c2Cn2ncc(N3CC[C@H](C(=O)NC4CC4)C3)cc2=O)cn1 [Example 57, (3S)—N-cyclopropyl-1-[1-[[5-methyl-3-(6-methyl-3-pyridyl)isoxazol-4-yl]methyl]-6-oxo-pyridazin-4-yl]pyrrolidine-3-carboxamide] | 56.2 nM | 198% | 2.98
16 | Cc1ccc(-c2noc(C)c2Cn2ncc(N3CC4(C3)CN(C3CC3)C4)cc2=O)cn1 [Example 58, 5-(2-cyclopropyl-2,6-diazaspiro[3.3]heptan-6-yl)-2-[[5-methyl-3-(6-methyl-3-pyridyl)isoxazol-4-yl]methyl]pyridazin-3-one] | 70.4 nM | 209% | 3.09
17 | Cc1ccc(-c2noc(C)c2Cn2ncc(N3CCN(C4CC4)[C@H](C)C3)cc2=O)cn1 [Example 59, 5-[(3R)-4-cyclopropyl-3-methyl-piperazin-1-yl]-2-[[5-methyl-3-(6-methyl-3-pyridyl)isoxazol-4-yl]methyl]pyridazin-3-one] | 15.4 nM | 157% | 2.57
18 | Cc1ccc(-c2noc(C)c2Cn2ncc(N3CCN(C4CC4)[C@@H](C)C3)cc2=O)cn1 [Example 60, 5-[(3S)-4-cyclopropyl-3-methyl-piperazin-1-yl]-2-[[5-methyl-3-(6-methyl-3-pyridyl)isoxazol-4-yl]methyl]pyridazin-3-one] | 10.2 nM | 97% | 1.97
19 | COc1ccccc1C1CCN(c2cnn(Cc3c(-c4ccc(C)nc4)noc3C)c(=O)c2)CC1 [Example 61, 5-[4-(2-methoxyphenyl)-1-piperidyl]-2-[[5-methyl-3-(6-methyl-3-pyridyl)isoxazol-4-yl]methyl]pyridazin-3-one] | 15.4 nM | 76% | 1.76
